Experimental findings from PubChem BioAssay AID1996 are described below.

Values after ≈ are worked out from the molar mass of the structure shown.

The conditions of the series: buffer; pH 7.4; 200.0 µM.
`Fc1cc(F)c2nc(N3CCCC3)sc2c1` registered a kinetic solubility of 9.4 µg/mL (≈ 39.1 µM). To `Cc1ccc(C)c(OCCC(=O)NCCc2ccc(F)cc2)c1` belongs 31.5 µg/mL (≈ 99.9 µM). `O=C(NCC(c1ccc(F)cc1)N1CCOCC1)c1ccc(-c2ccccc2)cc1` (configuration not stated): the kinetic solubility turned out to be 3.2 µg/mL (≈ 7.91 µM). Compared with the last compound, the solubility kinetic is about 9.8-fold lower. The result for `CN1CCc2c(sc(NC(=O)Cc3ccc(F)cc3)c2C(N)=O)C1.Cl` reads 52.6 µg/mL. Consider `Cc1c(C)c(C)c(S(=O)(=O)N2CCSCC2)c(C)c1C`, for which the solubility (kinetic) came to 1.5 µg/mL (≈ 4.78 µM). The result for `Cc1ccc(Cl)cc1NC(=O)Cn1c(C)csc1=O` reads 16.4 µg/mL (≈ 55.3 µM).

`O=C(CN1C(=O)c2ccccc2C1=O)N(CCO)Cc1ccccc1` displayed a solubility (kinetic) of 48.7 µg/mL (≈ 144 µM). Regarding `CC(C)(C)NC(=O)C1c2ccccc2Oc2ccccc21`, the kinetic solubility worked out at 1.7 µg/mL (≈ 6.04 µM). For `O=C(CCc1ccccc1)N1CCN(c2ccc(F)cc2)CC1`, the kinetic solubility was greater than 46.9 µg/mL. The result for `CN(C)C(=S)Nc1ccc(S(=O)(=O)N2CCCCC2)cc1` reads 47.1 µg/mL (≈ 144 µM); that for `CNC(=S)N1CCc2cc(OC)c(OC)cc2C1`, greater than 40 µg/mL.

In turn, `Nc1cc(N)cc(C(=O)Nc2ccc3c(c2)C(=O)NC3=O)c1` returned a solubility (kinetic) greater than 44.4 µg/mL. `S=C(c1ccc2c(c1)OCO2)N1CCOCC1` came in with a kinetic solubility greater than 37.7 µg/mL. The result for `O=C(c1cc(-c2ccc(F)cc2)nc2ccccc12)N1CCC1` reads greater than 46 µg/mL; that for `COc1cccc(CC(=O)Nc2ccc(-c3csc(C)n3)cc2)c1`, 2.5 µg/mL (≈ 7.39 µM).

`CCOc1ccccc1NC(=O)Nc1cccc(S(N)(=O)=O)c1`: the solubility (kinetic) was greater than 50.3 µg/mL. To `Cc1ccc(NS(=O)(=O)c2cccc(C(=O)Nc3cccnc3)c2)c(C)c1` belongs 6 µg/mL (≈ 15.7 µM); to `CN1CCN(CCCNc2c(C=O)c(=O)[nH]c3ccccc23)CC1`, 34.1 µg/mL (≈ 104 µM); to `O=C(Nc1nccs1)c1c(O)c2c(n(Cc3ccco3)c1=O)CCCC2`, less than 0.3 µg/mL.

`O=S(=O)(c1cc(F)ccc1F)N1CCN2CCCC2C1` (configuration not stated) registered a kinetic solubility greater than 45.4 µg/mL. The result for `Cc1cc(C)nc(Nc2nc3ccccc3s2)n1` reads less than 0.1 µg/mL; that for `COC(=O)CNC(=S)NC(=O)c1ccc(C(C)(C)C)cc1`, 25.4 µg/mL (≈ 82.4 µM). `O=C1OCCC1Sc1nnc(-c2ccc3c(c2)OCO3)o1` (configuration not stated) gave a kinetic solubility greater than 45.9 µg/mL. For `COc1ccc(/C=C2\SC(=S)N(CC3CCCO3)C2=O)cc1` (configuration not stated), the kinetic solubility is less than 0.7 µg/mL.

As for `O=C(COC(=O)c1ccccc1Br)NC1CCCCCCC1`, the kinetic solubility was 25.1 µg/mL (≈ 68.2 µM). To `C/C(CC(=O)NC(C)c1ccccc1)=N\NC(N)=S` (configuration not stated) belongs greater than 41.8 µg/mL; to `Cc1ccc2nc(SCC(=O)NCc3cccs3)[nH]c2c1`, greater than 47.6 µg/mL; to `CC(C)C(NC(=O)C1CC(=O)N(Cc2ccccc2)C1)c1nc2ccccc2[nH]1` (configuration not stated), greater than 58.6 µg/mL. Turning to `CC(C)C(=O)NC(=S)Nc1c(Cl)ccc2nsnc12`, the solubility (kinetic) came out at 40.1 µg/mL (≈ 127 µM). The compound `COc1cc(C(=O)Nc2ccc(Nc3ccccc3)cc2)cc(OC)c1OC` registered a solubility (kinetic) of 4.4 µg/mL (≈ 11.6 µM). For `Cn1cccc1C(=O)OCC(=O)NCc1cccs1`, the solubility (kinetic) is greater than 41.7 µg/mL. To `Cc1cccc(C(=O)OCC(=O)Nc2ccc3c(c2)OCCO3)c1` belongs 8.2 µg/mL (≈ 25.1 µM); to `Cc1onc(-c2c(F)cccc2Cl)c1C(=O)N1CCCCC1`, greater than 48.4 µg/mL; to `O=[N+]([O-])c1ccccc1Nc1c2ccccc2nc2ccccc12`, less than 0.2 µg/mL.

`O=c1c2c3c(sc2[nH]c(=S)n1Cc1ccco1)CCC3` registered a kinetic solubility of 34.6 µg/mL (≈ 114 µM). On to `COc1ccc(-c2cc(C(F)(F)F)c(C#N)c(=O)[nH]2)cc1`, for which the kinetic solubility was 21.2 µg/mL (≈ 72.1 µM). This solubility kinetic lies about 1.6-fold lower than the previous one. As for `O=c1cc(O)c2c(=O)n(Cc3ccccc3)c3ccccc3c2o1`, the kinetic solubility came out at 32.6 µg/mL (≈ 102 µM).

`COCc1cc(NCc2ccc(Cl)cc2)nc(C)n1` displayed a solubility (kinetic) of 34.7 µg/mL (≈ 125 µM). To `CCC(=O)c1ccc(OC(C)C(=O)NC2(C#N)CCCCC2)cc1` (configuration not stated) belongs 25 µg/mL (≈ 76.1 µM). To `O=[N+]([O-])c1ccccc1S(=O)(=O)Nc1cccc(S(=O)(=O)N2CCCC2)c1` belongs greater than 61.7 µg/mL; to `N#C/C(=C\c1ccccc1)C(=O)NC1CC1`, greater than 31.8 µg/mL.

With `Cc1ccc(O)c(NC(=S)NC(=O)/C=C/c2ccccc2)c1`, the solubility (kinetic) is less than 0.3 µg/mL. Take `CCOC(=O)c1[nH]c2cc3c(cc2c1NC(=O)CN1CCCC1)OCO3`: the solubility (kinetic) worked out at 18 µg/mL (≈ 50.1 µM). The result for `Cc1ccc(CN(C)c2ccc(S(=O)(=O)N3CCCC3)cn2)cc1` reads 12.5 µg/mL (≈ 36.2 µM). Consider `O=C1c2cccc3cccc(c23)C(=O)N1c1ccccc1Cl`, for which the solubility (kinetic) is 0.8 µg/mL (≈ 2.6 µM). To `CC1CCCC(C)N1C(=O)CSc1nc(N)cc(N)n1` (configuration not stated) belongs greater than 44.3 µg/mL.

In the case of `COc1ccccc1C(=O)Nc1nc2ccccc2[nH]1`, the kinetic solubility came out at 4.2 µg/mL (≈ 15.7 µM). To `Cc1cccc[n+]1CC(=O)c1ccccc1.[Br-]` belongs greater than 43.8 µg/mL; to `O=C(CSc1ccccc1)Nc1ccc2c(c1)OCO2`, 41.8 µg/mL (≈ 145 µM); to `CCN1CCN(CCC(=O)Nc2cc(OC)cc(OC)c2)CC1`, 35.2 µg/mL (≈ 110 µM).

Turning to `CN1CCN(CCCN2c3ccccc3Sc3ccc(Cl)cc32)CC1.O=S(=O)(O)CCS(=O)(=O)O`, the kinetic solubility is 73.3 µg/mL. With `Fc1ccc2nc(N3CCCC3)sc2c1`, the kinetic solubility came to 15.6 µg/mL (≈ 70.2 µM).
